Experimental data: ChEMBL document CHEMBL1201862, “PubChem BioAssay data set” (2004)
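Where inhibition never reached the appropriate level, the endpoint shown equals the highest concentration tested. Otherwise, values were interpolated linearly from a five-concentration, 48-hour dose response in 96-well plates. GI50 is the concentration that inhibits growth by half.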 Activity calls are given as the source filed them. No stated cut-off is given here; in the data, active = GI50 up to about 1.1 µM and inactive = higher.

What was measured:
Experiment in all cases: growth of human tumour cells (NCI), 48 h
NCI-H460 = system: NCI-H460
SNB-75 = system: SNB-75
HL-60 = system: HL-60
UO-31 = system: UO-31
SW-620 = system: SW-620
U-251 = system: U-251
MOLT-4 = system: MOLT-4
HOP-92 = system: HOP-92
SNB-78 = system: SNB-78
SF-268 = system: SF-268
CCRF-CEM = system: CCRF-CEM
Malme-3M = system: Malme-3M
SF-539 = system: SF-539
SF-295 = system: SF-295
NCI-H522 = system: NCI-H522
SN12C = system: SN12C
MCF7 = system: MCF7
SR = system: SR
DU-145 = system: DU-145
MDA-MB-231 = system: MDA-MB-231

Compound	GI50 (NCI-H460)	GI50 (SNB-75)	GI50 (HL-60)	GI50 (UO-31)	GI50 (SW-620)	GI50 (U-251)	GI50 (MOLT-4)	GI50 (HOP-92)	GI50 (SNB-78)	GI50 (SF-268)	GI50 (CCRF-CEM)	GI50 (Malme-3M)	GI50 (SF-539)	GI50 (SF-295)	GI50 (NCI-H522)	GI50 (SN12C)	GI50 (MCF7)	GI50 (SR)	GI50 (DU-145)	GI50 (MDA-MB-231)
C/C(CC(=O)Nc1cc(C)ccc1C)=N\NC(=O)c1ccncc1	> 100 µM (inactive)	> 100 µM (inactive)	> 100 µM (inactive)	> 100 µM (inactive)	> 100 µM (inactive)	> 100 µM (inactive)	> 100 µM (inactive)	79.6 µM (inactive)	> 100 µM (inactive)	> 100 µM (inactive)	> 100 µM (inactive)	> 100 µM (inactive)	> 100 µM (inactive)	> 100 µM (inactive)	78 µM (inactive)	–	–	–	–	–
S=C(Nc1ccccc1)Nc1[nH]c(=S)sc1-c1nc2ccccc2[nH]1	–	38.5 µM (inactive)	> 100 µM (inactive)	> 100 µM (inactive)	> 100 µM (inactive)	80 µM (inactive)	> 100 µM (inactive)	–	36.1 µM (inactive)	48.9 µM (inactive)	> 100 µM (inactive)	43 µM (inactive)	28.6 µM (inactive)	41.9 µM (inactive)	62.4 µM (inactive)	> 100 µM (inactive)	–	–	–	–
Cc1ccc(NC(=O)C(=O)CC(=O)C2CCOC2=O)c(C)c1 (stereo not given)	> 100 µM (inactive)	76.2 µM (inactive)	> 100 µM (inactive)	> 100 µM (inactive)	> 100 µM (inactive)	> 100 µM (inactive)	–	> 100 µM (inactive)	> 100 µM (inactive)	> 100 µM (inactive)	> 100 µM (inactive)	> 100 µM (inactive)	> 100 µM (inactive)	> 100 µM (inactive)	> 100 µM (inactive)	> 100 µM (inactive)	–	–	–	–
O=C(c1c2c(cc3c1CC1(Cc4cc5c(cc4C1)CCCC5)C3)CCCC2)C(Br)Br	40.2 µM (inactive)	5.08 µM (inactive)	3.18 µM (inactive)	13.8 µM (inactive)	5.48 µM (inactive)	16.2 µM (inactive)	1.85 µM (inactive)	13.4 µM (inactive)	–	14.6 µM (inactive)	1.6 µM (inactive)	3.53 µM (inactive)	20.2 µM (inactive)	58.6 µM (inactive)	1.65 µM (inactive)	18.6 µM (inactive)	7.67 µM (inactive)	2.69 µM (inactive)	> 58.5 µM (inactive)	17.4 µM (inactive)
COc1cc2c3c(cc(Cl)nc3c1OC)C(O)(CC(=O)c1ccccc1)C(=O)N2 (stereo not given)	21 µM (inactive)	14.8 µM (inactive)	1.49 µM (inactive)	13.3 µM (inactive)	4 µM (inactive)	17.1 µM (inactive)	1.71 µM (inactive)	1.94 µM (inactive)	–	4.94 µM (inactive)	1.64 µM (inactive)	2.38 µM (inactive)	0.995 µM (active)	17.9 µM (inactive)	2.89 µM (inactive)	6.79 µM (inactive)	1.88 µM (inactive)	4.65 µM (inactive)	16.2 µM (inactive)	13.8 µM (inactive)
COC1=C(C)C(=O)C2C(C1=O)C(c1ccc(OC)c(OC)c1)[C@H]2C (stereo not given in full)	> 100 µM (inactive)	72.8 µM (inactive)	> 100 µM (inactive)	61.1 µM (inactive)	> 100 µM (inactive)	> 100 µM (inactive)	> 100 µM (inactive)	> 100 µM (inactive)	> 100 µM (inactive)	> 100 µM (inactive)	> 100 µM (inactive)	> 100 µM (inactive)	> 100 µM (inactive)	> 100 µM (inactive)	> 100 µM (inactive)	–	–	> 100 µM (inactive)	–	–
C=C1C2CC(OC(C)=O)C3(C)C(c4ccoc4)OC(=O)[C@@H](O)[C@]13OC1C[C@H](OC(C)=O)C(C)(C)[C@H](C(O)C(=O)OC)[C@]12C (stereo not given in full)	> 100 µM (inactive)	29.9 µM (inactive)	> 100 µM (inactive)	> 100 µM (inactive)	> 100 µM (inactive)	> 100 µM (inactive)	> 100 µM (inactive)	4.17 µM (inactive)	> 100 µM (inactive)	–	> 100 µM (inactive)	–	> 100 µM (inactive)	> 100 µM (inactive)	–	> 100 µM (inactive)	–	–	–	–
COc1ccc(Nc2n[nH]c(NS(=O)(=O)c3cc(C)c(Cl)cc3S)n2)cc1	> 100 µM (inactive)	> 100 µM (inactive)	> 100 µM (inactive)	> 100 µM (inactive)	> 100 µM (inactive)	> 100 µM (inactive)	> 100 µM (inactive)	> 100 µM (inactive)	–	> 100 µM (inactive)	> 100 µM (inactive)	> 100 µM (inactive)	> 100 µM (inactive)	> 100 µM (inactive)	> 100 µM (inactive)	> 100 µM (inactive)	> 100 µM (inactive)	> 100 µM (inactive)	> 100 µM (inactive)	> 100 µM (inactive)
